This note sets out measurements from patent US12297194B2, “N2-phenylpyrimidine-2,4-diamine compounds, and preparation methods and methods of use thereof” (BRIDGE BIOTHERAPEUTICS, INC., priority 2021, dated 2025).

Holding throughout (type): cell-based, murine
The target in assay [1] is Ba/F3 EGFR Wild-type (Homo sapiens, UniProt P00533). Put plainly: CellTiter-Glo cell viability, Ba/F3 EGFR wild-type cells. The note with it: 72 hours, read-out: Ba/F3 EGFR mutant cell (IC50, nM) WT. The method, then:
(§1) In order to evaluate an inhibitory ability on wild-type Ba/F3 EGFR and Ba/F3 EGFR mutations in Ba/F3 cell lines by the compounds of Formula 1, the experiment was carried out as described below.
(§2) The measurement of activities on Ba/F3 cells harboring wild-type EGFR and EGFR mutants by the compounds of the present invention were determined utilizing the CELLTITER-GLO™ system from Promega, as follows. The CELLTITER-GLO™ assay is a method for measuring the ATP present in cells to determine the cell viability. Ba/F3 EGFR wild-type and Ba/F3 EGFR L858R/C797S (L/C), Ba/F3 EGFR L858R/T790M/C797S (L/T/C), Ba/F3 EGFR Del19/T790M (D/T), Ba/F3 EGFR Del19/C797S (D/C), Ba/F3 EGFR Del19/T790M/C797S (D/T/C) mutant cell lines were maintained in RPMI1640, containing […], 1% penicillin-streptomycin, […] puromycin. Cells were grown in a humidified incubator at 37° C. with […].
(§3) The analysis of an EGFR inhibitory activity by the compounds was carried out in accordance with the analysis reaction recipe below.
(§4) 2500 cells/90 μL were seeded in 96 well cell culture plate, and after 24 hours, treated with the compounds represented by Formula 1 in concentrations of 0, 0.3, 0.9, 2.7, 8.2, 24.7, 74.1, 222.2, 666.7, 2000 (nM). After the reaction of 72 hours, the plate was incubated for 30 minutes at ambient temperature, and then, was further treated with 100 μL of the CELLTITER-GLO™ reagent and was shaken for 10 minutes at ambient temperature. Finally, measurement of the luminescence values were obtained using the SPECTRAMAX™ iD3 (Molecular Devices), and the IC50 values of the compound were analyzed using the GraphPad Prism program (version 9.0.2, GraphPad Software, Inc.).

Assay [2] deals with Ba/F3 EGFR L858R/C797S mutants (Homo sapiens, UniProt P00533, C797S/L858R, cells depend on it). Put plainly: CellTiter-Glo cell viability, Ba/F3 EGFR L858R/C797S cells. The note with it: 72 hours, read-out: Ba/F3 EGFR mutant cell (IC50, nM) L/C. The procedure: as §1, §2, §3, §4
Assay [3] concerns the target Ba/F3 EGFR L858R/T790M/C797S mutants (Homo sapiens, UniProt P00533, T790M/C797S/L858R, cells depend on it). Put plainly: CellTiter-Glo cell viability, Ba/F3 EGFR L858R/T790M/C797S cells. The note with it: 72 hours, read-out: Ba/F3 EGFR mutant cell (IC50, nM) L/T/C. The method, then: as §1, §2, §3, §4
The target of assay [4] is Ba/F3 EGFR Del19/T790M mutants (Homo sapiens, UniProt P00533, T790M, cells depend on it, form not given). Put plainly: CellTiter-Glo cell viability, Ba/F3 EGFR Del19/T790M cells. As to conditions: 72 hours, read-out: Ba/F3 EGFR mutant cell (IC50, nM) D/T. The method, then:
as §1, §2, §3, §4

Assay [5] concerns the target Ba/F3 EGFR Del19/C797S mutants (Homo sapiens, UniProt P00533, C797S, cells depend on it, form not given). Briefly: CellTiter-Glo cell viability, Ba/F3 EGFR Del19/C797S cells. As to conditions: 72 hours, read-out: Ba/F3 EGFR mutant cell (IC50, nM) D/C. The procedure: as §1, §2, §3, §4
Assay [6] concerns the target Ba/F3 EGFR Del19/T790M/C797S mutants (Homo sapiens, UniProt P00533, T790M/C797S, cells depend on it, form not given). Briefly: CellTiter-Glo cell viability, Ba/F3 EGFR Del19/T790M/C797S cells. The note with it: 72 hours, read-out: Ba/F3 EGFR mutant cell (IC50, nM) D/T/C. The procedure: as §1, §2, §3, §4

SMILES strings stand for the structures. Where only a bound is given, the exact number is not on record here.

Sequence of Ba/F3 EGFR Wild-type (P00533 whole entry, change not shown): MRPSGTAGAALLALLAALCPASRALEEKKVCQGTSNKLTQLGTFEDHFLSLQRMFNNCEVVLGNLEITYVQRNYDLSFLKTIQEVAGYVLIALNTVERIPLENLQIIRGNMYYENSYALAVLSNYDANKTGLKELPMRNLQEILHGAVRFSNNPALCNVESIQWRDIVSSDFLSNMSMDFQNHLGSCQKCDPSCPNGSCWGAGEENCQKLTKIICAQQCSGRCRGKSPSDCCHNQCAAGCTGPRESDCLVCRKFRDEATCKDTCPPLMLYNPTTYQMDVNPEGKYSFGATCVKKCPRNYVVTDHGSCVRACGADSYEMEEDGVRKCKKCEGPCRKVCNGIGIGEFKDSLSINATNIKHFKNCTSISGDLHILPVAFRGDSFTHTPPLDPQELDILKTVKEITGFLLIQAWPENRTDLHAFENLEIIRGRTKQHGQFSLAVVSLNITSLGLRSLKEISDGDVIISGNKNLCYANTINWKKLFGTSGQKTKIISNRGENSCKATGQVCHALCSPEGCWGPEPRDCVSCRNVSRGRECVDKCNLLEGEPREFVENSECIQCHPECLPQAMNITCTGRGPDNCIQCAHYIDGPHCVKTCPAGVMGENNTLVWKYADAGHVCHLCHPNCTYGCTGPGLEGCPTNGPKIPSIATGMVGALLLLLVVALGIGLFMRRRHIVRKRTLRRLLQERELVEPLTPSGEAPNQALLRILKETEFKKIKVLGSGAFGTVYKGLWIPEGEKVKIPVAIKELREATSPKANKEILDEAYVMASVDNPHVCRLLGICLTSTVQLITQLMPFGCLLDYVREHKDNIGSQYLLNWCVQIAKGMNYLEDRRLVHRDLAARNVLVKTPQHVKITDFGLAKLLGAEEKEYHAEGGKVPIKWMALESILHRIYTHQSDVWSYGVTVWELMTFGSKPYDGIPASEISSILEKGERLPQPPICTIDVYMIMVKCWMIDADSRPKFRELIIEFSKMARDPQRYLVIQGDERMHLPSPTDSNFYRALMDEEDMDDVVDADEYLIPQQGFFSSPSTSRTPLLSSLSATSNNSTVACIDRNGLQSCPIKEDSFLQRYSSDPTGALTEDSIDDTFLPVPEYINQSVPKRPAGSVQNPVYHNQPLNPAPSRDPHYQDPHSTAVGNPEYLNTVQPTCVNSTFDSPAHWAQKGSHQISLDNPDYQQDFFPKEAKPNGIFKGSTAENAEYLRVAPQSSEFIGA
Sequence of Ba/F3 EGFR L858R/T790M/C797S mutants (P00533 whole entry T790M/C797S/L858R): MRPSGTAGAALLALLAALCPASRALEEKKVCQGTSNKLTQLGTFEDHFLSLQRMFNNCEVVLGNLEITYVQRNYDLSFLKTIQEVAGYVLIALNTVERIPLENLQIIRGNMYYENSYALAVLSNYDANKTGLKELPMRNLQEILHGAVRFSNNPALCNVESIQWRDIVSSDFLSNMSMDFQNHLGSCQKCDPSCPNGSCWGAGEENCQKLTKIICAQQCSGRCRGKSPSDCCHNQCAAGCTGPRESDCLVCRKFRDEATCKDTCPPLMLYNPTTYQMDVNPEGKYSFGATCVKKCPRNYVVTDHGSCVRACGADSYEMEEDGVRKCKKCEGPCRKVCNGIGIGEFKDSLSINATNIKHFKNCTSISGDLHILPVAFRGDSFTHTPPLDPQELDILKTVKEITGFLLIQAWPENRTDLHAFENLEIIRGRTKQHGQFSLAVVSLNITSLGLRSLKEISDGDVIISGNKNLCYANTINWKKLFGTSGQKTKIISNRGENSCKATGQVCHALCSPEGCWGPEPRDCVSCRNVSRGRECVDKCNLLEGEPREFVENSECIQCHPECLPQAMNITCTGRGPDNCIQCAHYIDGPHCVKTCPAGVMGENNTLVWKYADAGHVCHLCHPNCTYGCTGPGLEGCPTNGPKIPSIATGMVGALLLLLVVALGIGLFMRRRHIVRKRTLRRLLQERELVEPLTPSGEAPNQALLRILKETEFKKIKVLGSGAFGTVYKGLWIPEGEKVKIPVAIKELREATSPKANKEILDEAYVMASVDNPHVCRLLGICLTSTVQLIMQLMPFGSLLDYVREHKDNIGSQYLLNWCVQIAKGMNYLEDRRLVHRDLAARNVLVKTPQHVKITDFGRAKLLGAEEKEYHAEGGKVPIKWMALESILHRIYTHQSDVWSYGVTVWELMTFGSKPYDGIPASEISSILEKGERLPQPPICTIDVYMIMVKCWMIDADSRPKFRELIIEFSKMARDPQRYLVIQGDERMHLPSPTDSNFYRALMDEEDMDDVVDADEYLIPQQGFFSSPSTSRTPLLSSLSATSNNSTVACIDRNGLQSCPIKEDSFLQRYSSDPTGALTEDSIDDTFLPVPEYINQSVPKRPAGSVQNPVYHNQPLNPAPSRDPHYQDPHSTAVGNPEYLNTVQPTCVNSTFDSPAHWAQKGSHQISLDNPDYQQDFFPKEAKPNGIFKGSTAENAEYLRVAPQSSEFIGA
Sequence of Ba/F3 EGFR Del19/C797S mutants (P00533 with tags, fused parts or gaps DEL746-750/C797S, form open): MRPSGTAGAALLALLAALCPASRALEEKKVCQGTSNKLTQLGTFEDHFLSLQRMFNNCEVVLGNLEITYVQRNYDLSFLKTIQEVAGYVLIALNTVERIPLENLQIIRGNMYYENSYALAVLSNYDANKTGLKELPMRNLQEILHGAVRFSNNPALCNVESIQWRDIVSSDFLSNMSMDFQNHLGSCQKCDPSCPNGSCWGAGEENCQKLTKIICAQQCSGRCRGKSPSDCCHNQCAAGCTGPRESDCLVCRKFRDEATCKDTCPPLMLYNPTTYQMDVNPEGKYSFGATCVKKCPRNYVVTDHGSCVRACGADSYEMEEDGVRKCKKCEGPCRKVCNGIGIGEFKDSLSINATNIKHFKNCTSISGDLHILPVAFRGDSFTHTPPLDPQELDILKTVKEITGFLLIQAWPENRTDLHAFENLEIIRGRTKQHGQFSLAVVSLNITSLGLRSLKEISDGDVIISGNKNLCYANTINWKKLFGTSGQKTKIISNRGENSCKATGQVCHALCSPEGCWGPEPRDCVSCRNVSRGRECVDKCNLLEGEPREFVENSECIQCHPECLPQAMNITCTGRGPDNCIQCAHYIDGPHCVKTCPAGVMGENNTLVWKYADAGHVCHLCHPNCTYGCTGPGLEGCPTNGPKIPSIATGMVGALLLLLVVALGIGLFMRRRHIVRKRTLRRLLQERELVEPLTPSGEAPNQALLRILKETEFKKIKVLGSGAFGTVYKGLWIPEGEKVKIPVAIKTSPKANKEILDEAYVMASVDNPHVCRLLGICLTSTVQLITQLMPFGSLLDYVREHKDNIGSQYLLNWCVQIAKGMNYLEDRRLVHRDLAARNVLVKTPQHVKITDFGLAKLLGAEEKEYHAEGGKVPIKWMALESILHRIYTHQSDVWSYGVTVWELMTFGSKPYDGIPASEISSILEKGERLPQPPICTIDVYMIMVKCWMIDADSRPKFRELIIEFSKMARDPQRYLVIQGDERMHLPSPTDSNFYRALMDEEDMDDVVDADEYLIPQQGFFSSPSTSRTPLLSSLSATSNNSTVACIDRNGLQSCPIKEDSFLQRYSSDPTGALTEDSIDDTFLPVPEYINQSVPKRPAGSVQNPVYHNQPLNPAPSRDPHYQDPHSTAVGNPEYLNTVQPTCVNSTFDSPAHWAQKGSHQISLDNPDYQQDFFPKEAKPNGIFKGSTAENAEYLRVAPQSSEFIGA
Sequence of Ba/F3 EGFR Del19/T790M/C797S mutants (P00533 with tags, fused parts or gaps DEL746-750/T790M/C797S, form open): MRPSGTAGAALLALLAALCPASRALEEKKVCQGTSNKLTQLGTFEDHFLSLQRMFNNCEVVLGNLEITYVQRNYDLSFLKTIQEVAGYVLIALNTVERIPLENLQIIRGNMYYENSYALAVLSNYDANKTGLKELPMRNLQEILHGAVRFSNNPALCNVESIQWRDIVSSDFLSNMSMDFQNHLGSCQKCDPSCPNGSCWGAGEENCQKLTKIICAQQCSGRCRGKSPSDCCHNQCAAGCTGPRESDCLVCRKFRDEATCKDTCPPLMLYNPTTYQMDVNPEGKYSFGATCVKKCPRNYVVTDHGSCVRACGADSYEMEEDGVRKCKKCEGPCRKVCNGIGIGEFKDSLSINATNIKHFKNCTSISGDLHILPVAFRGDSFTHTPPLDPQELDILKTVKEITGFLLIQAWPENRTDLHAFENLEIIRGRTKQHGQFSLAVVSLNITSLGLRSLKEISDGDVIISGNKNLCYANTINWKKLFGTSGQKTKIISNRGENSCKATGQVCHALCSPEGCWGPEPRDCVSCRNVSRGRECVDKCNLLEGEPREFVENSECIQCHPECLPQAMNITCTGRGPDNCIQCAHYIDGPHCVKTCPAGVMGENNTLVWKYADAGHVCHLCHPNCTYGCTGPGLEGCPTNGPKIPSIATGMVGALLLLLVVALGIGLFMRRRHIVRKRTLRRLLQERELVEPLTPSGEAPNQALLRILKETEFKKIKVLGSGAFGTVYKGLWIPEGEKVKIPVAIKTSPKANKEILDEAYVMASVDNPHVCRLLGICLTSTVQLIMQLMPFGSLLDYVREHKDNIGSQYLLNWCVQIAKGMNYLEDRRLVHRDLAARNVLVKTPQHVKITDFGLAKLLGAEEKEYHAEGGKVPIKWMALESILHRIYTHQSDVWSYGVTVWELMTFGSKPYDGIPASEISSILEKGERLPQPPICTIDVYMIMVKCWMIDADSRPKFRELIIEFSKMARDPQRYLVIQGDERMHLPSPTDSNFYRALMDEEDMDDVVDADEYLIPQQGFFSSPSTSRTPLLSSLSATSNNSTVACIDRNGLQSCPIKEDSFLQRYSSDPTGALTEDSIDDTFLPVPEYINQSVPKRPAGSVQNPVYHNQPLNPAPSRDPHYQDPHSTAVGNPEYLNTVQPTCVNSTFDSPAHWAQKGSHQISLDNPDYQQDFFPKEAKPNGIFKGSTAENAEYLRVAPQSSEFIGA

As for `COc1ccc(Nc2nc(Nc3cc(C)c(N4CCC(N5CCN(C)CC5)CC4)cc3OC)ncc2Br)c(NS(C)(=O)=O)c1` [Example C2, N-(2-((5-bromo-2-((2-methoxy-5-methyl-4-(4-(4-methylpiperazin-1-yl)piperidin-1-yl)phenyl)amino)pyrimidin-4-yl)amino)-5-methoxyphenyl)methanesulfonamide], the GI50 was determined as 385 nM in assay [1]; 32 nM in assay [2]; 18 nM in assay [3]; 3 nM in assay [4]; 13 nM in assay [5]; 9 nM in assay [6].
For the molecule `CCS(=O)(=O)Nc1c(Nc2nc(Nc3cc(C)c(N4CCC(N5CCN(C)CC5)CC4)cc3OC)ncc2Br)ccc2nccnc12` [Example A24, N-(6-((5-bromo-2-((2-methoxy-5-methyl-4-(4-(4-methylpiperazin-1-yl)piperidin-1-yl)phenyl)amino)pyrimidin-4-yl)amino)quinoxalin-5-yl)ethanesulfonamide], the GI50 in assay [1] stood at 397 nM; in assay [2], 114 nM; in assay [3] it was 13 nM; in assay [4] it was 10 nM; in assay [5], 49 nM; in assay [6], 74 nM.
As to `CCCc1cc(Nc2ncc(Br)c(Nc3ccc4nccnc4c3N(C)S(C)(=O)=O)n2)c(OC)cc1N1CCC(N(C)C)CC1` [Example B24, N-(6-((5-bromo-2-((4-(4-(dimethylamino)piperidin-1-yl)-2-methoxy-5-propylphenyl)amino)pyrimidin-4-yl)amino)quinoxalin-5-yl)-N-methylmethanesulfonamide], the GI50 was determined as 908 nM in assay [1]; 185 nM in assay [2]; 65 nM in assay [3]; 23 nM in assay [4]; 17 nM in assay [5]; 20 nM in assay [6].
Consider `COc1cc(N2CCOCC2)c(C)cc1Nc1ncc(Br)c(Nc2ccc3nccnc3c2S(C)(=O)=O)n1` [Example D1, 5-bromo-N2-(2-methoxy-5-methyl-4-morpholinophenyl)-N4-(5-(methylsulfonyl)quinoxalin-6-yl)pyrimidine-2,4-diamine], for which the GI50 was greater than 2000 nM in assay [1]; 1120 nM in assay [2]; 536 nM in assay [3]; 477 nM in assay [4]; 1010 nM in assay [5]; 959 nM in assay [6].
As for `COc1cc(N2CCNCC2)ccc1Nc1ncc(Cl)c(Nc2cccc(OC)c2NS(C)(=O)=O)n1` [Example C6, N-(2-((5-chloro-2-((2-methoxy-4-(piperazin-1-yl)phenyl)amino)pyrimidin-4-yl)amino)-6-methoxyphenyl)methanesulfonamide], the GI50 in assay [1] came to 626 nM; in assay [2], 305 nM; in assay [3], 596 nM; in assay [4], 268 nM; in assay [5] it was 106 nM; in assay [6] it was 222 nM.
In the case of `COc1cc(C2CCNCC2)c(C)cc1Nc1ncc(Br)c(Nc2ccc3nccnc3c2NS(C)(=O)=O)n1` [Example B11, N-(6-((5-bromo-2-((2-methoxy-5-methyl-4-(piperidin-4-yl)phenyl)amino)pyrimidin-4-yl)amino)quinoxalin-5-yl)methanesulfonamide], the GI50 in assay [1] is 1270 nM; in assay [2], 781 nM; in assay [3], 264 nM; in assay [4], 443 nM; in assay [5], 583 nM; in assay [6], 725 nM.
As for `CCc1cc(Nc2ncc(Br)c(Nc3cccc(OC)c3N(C)S(C)(=O)=O)n2)c(OC)cc1N1CCC(N2CCN(C)CC2)CC1` [Example C29, N-(2-((5-bromo-2-((5-ethyl-2-methoxy-4-(4-(4-methylpiperazin-1-yl)piperidin-1-yl)phenyl)amino)pyrimidin-4-yl)amino)-6-methoxyphenyl)-N-methylmethane sulfonamide], the GI50 is 669 nM in assay [1]; 76 nM in assay [2]; 21 nM in assay [3]; 7 nM in assay [4]; 5 nM in assay [5]; 5 nM in assay [6].
As to `CCCc1cc(Nc2ncc(Cl)c(Nc3ccc4nccnc4c3N(C)S(C)(=O)=O)n2)c(OC)cc1N1CCC(N2CCOCC2)CC1` [Example A41, N-(6-((5-chloro-2-((2-methoxy-4-(4-morpholinopiperidin-1-yl)-5-propylphenyl)amino)pyrimidin-4-yl)amino)quinoxalin-5-yl)-N-methylmethanesulfonamide], the GI50 in assay [1] was greater than 2000 nM; in assay [2], 210 nM; in assay [3] it was 258 nM; in assay [4], 44 nM; in assay [5], 8 nM; in assay [6], 28 nM.
Consider `CCS(=O)(=O)Nc1cc(OC)ccc1Nc1nc(Nc2cc(C)c(N3CCC(N4CCN(C)CC4)CC3)cc2OC)ncc1Cl` [Example C17, N-(2-((5-chloro-2-((2-methoxy-5-methyl-4-(4-(4-methylpiperazin-1-yl)piperidin-1-yl)phenyl)amino)pyrimidin-4-yl)amino)-5-methoxyphenyl)ethanesulfonamide], for which the GI50 stood at 655 nM in assay [1]; 52 nM in assay [2]; 40 nM in assay [3]; 7 nM in assay [4]; 9 nM in assay [5]; 14 nM in assay [6].
In the case of `COc1cc(N2CC3(CNC3)C2)ccc1Nc1ncc(Cl)c(Nc2ccc3nccnc3c2NS(C)(=O)=O)n1` [Example D7, N-(6-((5-chloro-2-((2-methoxy-4-(2,6-diazaspiro[3.3]heptan-2-yl)phenyl)amino)pyrimidin-4-yl)amino)quinoxalin-5-yl)methanesulfonamide], the GI50 in assay [1], in assay [2], in assay [3], in assay [4] and in assay [6] was greater than 2000 nM in each case.
In the case of `CCc1cc(Nc2ncc(Cl)c(Nc3ccc4nccnc4c3N(C)S(C)(=O)=O)n2)c(OC)cc1N1CCC(N2CCN(C)CC2)CC1` [Example A38, N-(6-((5-chloro-2-((5-ethyl-2-methoxy-4-(4-(4-methylpiperazin-1-yl)piperidin-1-yl)phenyl)amino)pyrimidin-4-yl)amino)quinoxalin-5-yl)-N-methylmethanesulfonamide], the GI50 is 347 nM in assay [1]; 18 nM in assay [2]; 33 nM in assay [3]; 5 nM in assay [4]; 5 nM in assay [6].
With `CCc1cc(Nc2ncc(Br)c(Nc3ccc4nccnc4c3NS(C)(=O)=O)n2)c(OC)cc1N1CCC(N(C)C)CC1` [Example B2, N-(6-((5-bromo-2-((4-(4-(dimethylamino)piperidin-1-yl)-5-ethyl-2-methoxyphenyl)amino)pyrimidin-4-yl)amino)quinoxalin-5-yl)methanesulfonamide], the GI50 in assay [1] came out at 2100 nM; in assay [2] it was 195 nM; in assay [3], 13 nM; in assay [5], 28 nM; in assay [6], 7 nM.
The like results for `COc1cc(N2CCC(N3CCN(C)CC3)CC2)c(C)cc1Nc1ncc(Cl)c(Nc2ccc3nccnc3c2NS(=O)(=O)C2CC2)n1` [Example A26, N-(6-((5-chloro-2-((2-methoxy-5-methyl-4-(4-(4-methylpiperazin-1-yl)piperidin-1-yl)phenyl)amino)pyrimidin-4-yl)amino)quinoxalin-5-yl)cyclopropanesulfonamide] were, in that order, 1280 nM, 163 nM, 107 nM, 72 nM and 79 nM.
